According to patent publication US20250250263A1, “INHIBITING HISTONE DEACETYLASE 6 (HDAC6)” (Eikonizo Therapeutics, Inc., priority 2022, published 2025):

Columns and labels:
Human HDAC6 = Human HDAC6 (Homo sapiens (Human), UniProt Q9UBN7); test: In vitro HDAC6 enzymatic activity (Caliper endpoint assay or fluorogenic Nanosyn assay); type: biochemical; details: ratio of HDAC8 IC50/HDAC6 IC50
Human HDAC8 = Human HDAC8 (Homo sapiens (Human), UniProt Q9BY41); test: In vitro HDAC8 enzymatic activity (Caliper endpoint assay); type: biochemical
Sequence of Human HDAC8 (Q9BY41 whole entry): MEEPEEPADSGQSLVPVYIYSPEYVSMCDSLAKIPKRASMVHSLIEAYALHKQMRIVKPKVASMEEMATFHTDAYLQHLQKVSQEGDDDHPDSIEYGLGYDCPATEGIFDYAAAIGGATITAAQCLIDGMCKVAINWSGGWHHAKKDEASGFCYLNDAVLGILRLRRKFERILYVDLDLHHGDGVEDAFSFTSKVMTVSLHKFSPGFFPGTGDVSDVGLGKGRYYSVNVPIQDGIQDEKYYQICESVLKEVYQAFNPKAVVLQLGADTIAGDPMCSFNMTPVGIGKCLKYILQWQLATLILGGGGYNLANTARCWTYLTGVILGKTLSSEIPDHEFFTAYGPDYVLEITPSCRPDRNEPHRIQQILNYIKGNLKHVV

Sequence of Human HDAC6 (Q9UBN7 whole entry): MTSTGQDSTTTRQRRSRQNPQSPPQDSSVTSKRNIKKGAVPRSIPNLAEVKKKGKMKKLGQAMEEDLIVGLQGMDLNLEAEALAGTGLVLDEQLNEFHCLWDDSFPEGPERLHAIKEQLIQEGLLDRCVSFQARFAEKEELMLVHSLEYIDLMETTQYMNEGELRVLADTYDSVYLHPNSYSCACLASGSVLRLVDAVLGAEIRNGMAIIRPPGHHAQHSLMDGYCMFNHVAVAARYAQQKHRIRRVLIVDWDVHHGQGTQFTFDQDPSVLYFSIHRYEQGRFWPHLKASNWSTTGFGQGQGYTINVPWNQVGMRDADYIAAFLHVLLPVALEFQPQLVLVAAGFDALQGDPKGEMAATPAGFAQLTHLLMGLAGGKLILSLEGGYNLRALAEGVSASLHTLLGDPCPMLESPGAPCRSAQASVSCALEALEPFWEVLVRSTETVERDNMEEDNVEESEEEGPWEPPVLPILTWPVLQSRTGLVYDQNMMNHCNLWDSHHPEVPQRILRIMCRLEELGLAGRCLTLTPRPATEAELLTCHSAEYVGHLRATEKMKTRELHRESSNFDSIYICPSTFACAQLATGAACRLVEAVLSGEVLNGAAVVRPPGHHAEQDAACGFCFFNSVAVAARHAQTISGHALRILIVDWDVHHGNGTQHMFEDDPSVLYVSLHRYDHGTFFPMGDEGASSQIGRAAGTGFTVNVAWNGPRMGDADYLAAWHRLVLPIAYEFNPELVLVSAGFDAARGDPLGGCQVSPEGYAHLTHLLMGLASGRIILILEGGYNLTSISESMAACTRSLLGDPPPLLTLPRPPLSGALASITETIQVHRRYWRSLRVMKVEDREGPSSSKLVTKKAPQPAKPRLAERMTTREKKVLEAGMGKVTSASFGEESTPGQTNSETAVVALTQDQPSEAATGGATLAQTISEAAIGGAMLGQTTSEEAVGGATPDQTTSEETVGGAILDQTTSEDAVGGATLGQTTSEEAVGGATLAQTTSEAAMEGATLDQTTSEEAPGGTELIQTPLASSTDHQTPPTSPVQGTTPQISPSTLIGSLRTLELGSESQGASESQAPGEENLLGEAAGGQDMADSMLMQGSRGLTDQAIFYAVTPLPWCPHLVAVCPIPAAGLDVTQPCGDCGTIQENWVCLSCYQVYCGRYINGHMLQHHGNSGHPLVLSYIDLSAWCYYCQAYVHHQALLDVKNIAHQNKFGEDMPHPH

Row | Compound | Selectivity (6 v 8) (fold) (Human HDAC6) | IC50 (Human HDAC8) [µM]
1 | N#Cc1cc(OCc2ccc(-c3nnc(C(F)F)o3)cn2)ccc1F [Compound 30, 5-((5-(5-(difluoromethyl)-1,3,4-oxadiazol-2-yl)pyridin-2-yl)methoxy)-2-fluorobenzonitrile] | IV (IV: >100-1000) | –
2 | FC(F)c1nnc(-c2ccc(COc3ccc4cccnc4c3)nc2)o1 [Compound 34] | V (V: >1000) | > 100
3 | FC(F)c1nnc(-c2ccc(COc3cccc4ncccc34)nc2)o1 [Compound 63] | V (V: >1000) | > 100
